The source of these data is US5750531A, “Pyrimidine derivatives and processes for the preparation thereof” (Yuhan Corporation, priority 1994, dated 1998).

Where a name gives a salt, the structure may show the parent alone.

Test [1] deals with proton pump(H^+ /K^+ ATPase). Briefly: Inhibition of proton pump(H^+ /K^+ ATPase) activity. The test is classed as biochemical. Particulars: pH 6.0, 37° C., 30 minutes preincubation and 30 minutes reaction; read-out: IC50 Test compound. How it is done: Test 1: Inhibition of proton pump(H^+ /K^+ ATPase) activity
A proton pump enzyme source was prepared by the same method as in Experiment 1-1 of WO 94/14795. Further, the inhibitory effect of proton pump activity was measured by the same method as in Experiment 1-2 of WO 94/14795.
Namely, the proton pump activity stimulated by Mg^++ was used as a negative comparative group, and the activity stimulated by Mg^++ and K^+ was used as a positive comparative group. The comparative compound was omeprazole.
Test tubes were divided into 4 groups: Group 1 as negative comparative group(n=3), Group 2 as positive comparative group(n=3), Group 3(n=5×2) to be administered with the compound of the present invention and Group 4(n=5×2) to be administered with the comparative compound.
The inhibitory effects of Groups 3 and 4 on proton pump activity were measured by employing the compound prepared in Example and omeperazole, respectively, each of which was dissolved in dimethylsulfoxide at 5 different concentrations.
To each of Groups 1, 2, 3 and 4 were added 100 μl of magnesium chloride(40 mM) dissolved in 40 mM Tris-HCl buffer(pH 6.0) and 100μ of the enzyme source. Then, 50μ of potassium chloride(50 mM) and 50 μl of ammonium chloride(6 mM) dissolved in 40 mM Tris-HCl buffer(pH 6.0) were added to all groups except for Group 1.
10 μl of dimethylsulfoxide was added to each of Groups 1 and 2; and to Group 3 was added 10 μl of the solution in which the compound prepared in Example was dissolved in dimethylsulfoxide at 5 different concentrations(n=5×2). To Group 4, 10 μl of the solution prepared by dissolving omeprazole in dimethylsulfoxide at 5 different concentrations(37.6, 21.4, 12.2, 7.0 and 4.0 μM) was added(n=5×2). 40 mM Tris-HCl buffer(pH=6.0) was added thereto so as to make the total volume 400 μl.
Thereafter, the test tubes of each Group were placed at 37° C. for 30 minutes for the preincubation. 100 μl of ATP solution (6.6 mM) was added until the reaction volume became 500 μl. After the reaction was carried out at 37° C. for 30 minutes, 25% cold trichloroacetic acid was added to terminate the enzyme reaction. The released inorganic phosphate was measured by an automatic analyzer(Express 550, Corning).
The difference between Group 1 and Group 2 represents the proton pump activity activated by K^+ only. The inhibition percentages of Groups 3 and 4 were calculated from Litchfield-wilcoxon equation[see, e.g., J. pharmacol. Exp. Ther., 96, 99(1949)]. The concentrations of the test compounds which inhibit 50% of the proton pump activity are represented as IC50 in Table 1.

The test system of another test is gastric secretion. Put plainly: Inhibition of gastric secretion (pylorus ligation, Shay method). Format: in vivo, Male Sprague-Dawley rats. Particulars: 20 mg/kg intraduodenally, 5 hours; for Rel. Conc.: acid concentration relative to omeprazole; for Relative Acid Output: acid output relative to omeprazole; for Rel. Vol.: gastric juice volume relative to omeprazole. How it is done:
Inhibition of gastric secretion […] Under ether anesthesia, the abdomen was incised, and the pylorus was ligated. […] After closing the abdominal cavity, the rats were placed for 5 hours and then killed by cervical dislocation. The stomach was extracted to obtain gastric juice. The gastric juice was centrifuged at 1,000 g to remove precipitates. The amount and acidity of the gastric juice were measured. Relative volumes, relative acid concentrations and relative acid outputs of the test compounds were calculated from equations(I), (II) and (III) and the results are shown in Table 2. […] Group 3) (II) […] (III)

What is called IC50 is the midpoint of a concentration-inhibition curve. With `Cc1cc(F)ccc1Nc1nc(C)c(C)c(N2CCc3ccccc3C2C)n1.Cl` (stereo not shown) [Example 12, 5,6-dimethyl-2-(2-methyl-4-fluorophenylamino)-4-(1-methyl-1,2,3,4-tetrahydroisoquinolin-2-yl)pyrimidine hydrochloride], the half-maximal inhibitory concentration (IC50) in test [1] was 0.6 µM. In the test on gastric secretion, the Rel. Conc. was 0.29, the “Relative Acid Output” value is given as 0.75 and the Rel. Vol. is 1.64.

In the case of `Cc1cc(F)ccc1Nc1nc(C)c(C)c(N2CCc3ccccc3[C@H]2C)n1.Cl` [Example 13, (R)-5,6-Dimethyl-2-(2-methyl-4-fluorophenylamino)-4-(1-methyl-1,2,3,4-tetrahydroisoquinolin-2-yl)pyrimidine hydrochloride], in test [1], the half-inhibitory concentration (IC50) is 0.5 µM. In the test with gastric secretion, the Rel. Conc. was determined as 0.46, the “Relative Acid Output” value stood at 0.81 and the Rel. Vol. was 1.72.

Regarding `Cc1cc(F)ccc1Nc1nc(C)c(C)c(N2CCc3ccccc3[C@@H]2C)n1.Cl` [Example 14, (S)-5,6-dimethyl-2-(2-methyl-4-fluorophenylamino)-4-(1-methyl-1,2,3,4-tetrahydroisoquinolin-2-yl)pyrimidine hydrochloride], in test [1], the IC50 is 0.7 µM. Further, in the test on gastric secretion, the Rel. Conc. was found to be 0.3, the “Relative Acid Output” value is on record as 0.72 and the Rel. Vol. was 0.53.

In the case of `Cc1nc(Nc2ccc(F)cc2)nc(N2CCc3ccccc3C2C)c1C.Cl` (stereo not shown) [Example 15, 5,6-dimethyl-2-(4-fluorophenylamino)-4-(1-methyl-1,2,3,4-tetrahydroisoquinolin-2-yl)pyrimidine hydrochloride], the concentration for half-maximal inhibition (IC50) in test [1] amounted to 1.6 µM. Moreover, in the test with gastric secretion, the Rel. Conc. came to 1.06, the “Relative Acid Output” value is on record as 0.99 and the Rel. Vol. amounted to 0.8.

Take `Cc1nc(Nc2ccc(F)cc2)nc(N2CCc3ccccc3[C@H]2C)c1C.Cl` [Example 16, (R)-5,6-dimethyl-2-(4-fluorophenylamino)-4-(1-methyl-1,2,3,4-tetrahydroisoquinolin-2-yl)pyrimidine hydrochloride]: in test [1], the concentration for half-maximal inhibition (IC50) was 1.5 µM. For the same molecule, in the test on gastric secretion, the Rel. Conc. stood at 1.24, the “Relative Acid Output” value came out at 1.13 and the Rel. Vol. stood at 0.96.

As for `Cc1nc(Nc2ccc(F)cc2)nc(N2CCc3ccccc3[C@@H]2C)c1C.Cl` [Example 17, (S)-5,6-dimethyl-2-(4-fluorophenylamino)-4-(1-methyl-1,2,3,4-tetrahydroisoquinolin-2-yl)pyrimidine hydrochloride], the IC50 in test [1] was found to be 1.8 µM. Further, in the test with gastric secretion, the Rel. Conc. was 0.97, the “Relative Acid Output” value was 0.89 and the Rel. Vol. was found to be 0.82.

Turning to `Cc1nc(N(C)c2ccccc2)nc(N2CCc3ccccc3C2C)c1C.Cl` (stereo not shown) [Example 18, 5,6-dimethyl-2-(N-methylphenylamino)-4-(1-methyl-1,2,3,4-tetrahydroisoquinolin-2-yl)pyrimidine hydrochloride], the half-maximal inhibitory concentration (IC50) in test [1] amounted to 4.2 µM. Further, in the test on gastric secretion, the Rel. Conc. is 1.82, the “Relative Acid Output” value worked out at 1.39 and the Rel. Vol. worked out at 1.72.

`Cc1nc(N(C)c2ccccc2)nc(N2CCc3ccccc3[C@H]2C)c1C.Cl` [Example 19, (R)-5,6-Dimethyl-2-(N-methylphenylamino)-4-(1-methyl-1,2,3,4-tetrahydroisoquinolin-2-yl)pyrimidine hydrochloride]: the 50% inhibitory concentration (IC50) in test [1] is 3.9 µM. Moreover, in the test on gastric secretion, the Rel. Conc. was 1.86, the “Relative Acid Output” value was found to be 1.43 and the Rel. Vol. was determined as 1.8.

As for `Cc1nc(N(C)c2ccccc2)nc(N2CCc3ccccc3[C@@H]2C)c1C.Cl` [Example 20, (S)-5,6-dimethyl-2-(N-methylphenylamino)-4-(1-methyl-1,2,3,4-tetrahydroisoquinolin-2-yl)pyrimidine hydrochloride], the half-maximal inhibitory concentration (IC50) in test [1] came out at 4.4 µM. In the test on gastric secretion, the Rel. Conc. is 1.75, the “Relative Acid Output” value was 1.28 and the Rel. Vol. turned out to be 1.66.

On to `Cc1nc(Nc2ccccc2)nc(N2CCc3ccccc3C2C)c1C.Cl` (stereo not shown) [Example 21, 5,6-dimethyl-2-(phenylamino)-4-(1-methyl-1,2,3,4-tetrahydroisoquinolin-2-yl)pyrimidine hydrochloride], for which the half-inhibitory concentration (IC50) in test [1] is 1.5 µM. Further, in the test on gastric secretion, the Rel. Conc. came out at 0.88, the “Relative Acid Output” value came out at 0.97 and the Rel. Vol. is 1.06.

For `Cc1nc(Nc2ccccc2)nc(N2CCc3ccccc3[C@H]2C)c1C` [Example 22, (R)-5,6-Dimethyl-2-(4-phenylamino)-4-(1-methyl-1,2,3,4-tetrahydroisoquinolin-2-yl)pyrimidine hydrochloride], the half-maximal inhibitory concentration (IC50) in test [1] amounted to 1.4 µM. For the same molecule, in the test on gastric secretion, the Rel. Conc. turned out to be 0.8, the “Relative Acid Output” value came out at 0.90 and the Rel. Vol. amounted to 0.99.

`Cc1nc(Nc2ccccc2)nc(N2CCc3ccccc3[C@@H]2C)c1C` [Example 23, hydrochloride]: the IC50 in test [1] is 2 µM. In the test with gastric secretion, the Rel. Conc. was 0.78, the “Relative Acid Output” value came out at 0.88 and the Rel. Vol. is 0.92.

As for `Cc1ccccc1Nc1nc(C)c(C)c(N2CCc3ccccc3C2C)n1.Cl` (stereo not shown) [Example 24, 5,6-Dimethyl-2-(2-methylphenylamino)-4-(1-methyl-1,2,3,4-tetrahydroisoquinolin-2-yl)pyrimidine hydrochloride], the half-maximal inhibitory concentration (IC50) in test [1] was determined as 0.6 µM. In the test with gastric secretion, the Rel. Conc. was determined as 1.03, the “Relative Acid Output” value was 1.01 and the Rel. Vol. was 1.

Take `Cc1ccc(Nc2nc(C)c(C)c(N3CCc4ccccc4C3C)n2)cc1.Cl` (stereo not shown) [Example 25, 5,6-dimethyl-2-(4-methylphenylamino)-4-(1-methyl-1,2,3,4-tetrahydroisoquinolin-2-yl)pyrimidine hydrochloride]: the IC50 in test [1] came out at 1.4 µM. Further, in the test on gastric secretion, the Rel. Conc. was determined as 0.8, the “Relative Acid Output” value was 0.92 and the Rel. Vol. was 1.06.

For `CCc1nc(Nc2ccc(F)cc2C)nc(N2CCc3ccccc3C2C)c1C.Cl` (stereo not shown) [Example 26, 5-methyl-6-ethyl-2-(2-methyl-4-fluorophenylamino)-4-(1-methyl-1,2,3,4-tetrahydroisoquinolin-2-yl)pyrimidine hydrochloride], in test [1], the IC50 was determined as 0.8 µM. In addition, in the test with gastric secretion, the Rel. Conc. came out at 0.53, the “Relative Acid Output” value worked out at 0.73 and the Rel. Vol. was found to be 0.6.

With `CCc1nc(Nc2ccc(F)cc2)nc(N2CCc3ccccc3C2C)c1C.Cl` (stereo not shown) [Example 27, 5-methyl-6-ethyl-2-(4-fluorophenylamino)-4-(1-methyl-1,2,3,4-tetrahydroisoquinolin-2-yl)pyrimidine hydrochloride], the IC50 in test [1] is 2.1 µM. Further, in the test with gastric secretion, the Rel. Conc. was 0.61, the “Relative Acid Output” value was determined as 0.81 and the Rel. Vol. came out at 0.7.

Take `CCc1nc(N(C)c2ccccc2)nc(N2CCc3ccccc3C2C)c1C.Cl` (stereo not shown) [Example 28, 5-methyl-6-ethyl-2-(N-methylphenylamino)-4-(1-methyl-1,2,3,4-tetrahydroisoquinolin-2-yl)pyrimidine hydrochloride]: in test [1], the IC50 is above 15 µM. In the test with gastric secretion, the Rel. Conc. worked out at 0.44, the “Relative Acid Output” value is listed as 0.78 and the Rel. Vol. was 0.71.

On to `Cc1cc(F)ccc1Nc1nc2c(c(N3CCc4ccccc4C3C)n1)CCC2` (stereo not shown) [Example 29, hydrochloride], for which, in test [1], the half-inhibitory concentration (IC50) was found to be 0.4 µM. Also, in the test with gastric secretion, the Rel. Conc. amounted to 0.31, the “Relative Acid Output” value amounted to 0.6 and the Rel. Vol. worked out at 0.56.

With `CC1c2ccccc2CCN1c1nc(Nc2ccc(F)cc2)nc2c1CCC2` (stereo not shown) [Example 30, hydrochloride], in test [1], the 50% inhibitory concentration (IC50) is around 8.4 µM. For the same molecule, in the test with gastric secretion, the Rel. Conc. amounted to 0.2, the “Relative Acid Output” value is given as 0.39 and the Rel. Vol. is 0.33.
